Where a name gives a salt, the structure may show the parent alone.
What was measured:
Assay type in all cases: in vivo, rat
[1] = test system: Obese, insulin resistant ZF (fa/fa) rats; test: Pharmacological Study Report I: deuterated glucose disposal test (2H-GDT); settings: 4 weeks, Compound B 40 mg/kg/day in chow
Protocol: (§1) Obese, insulin resistant ZF (fa/fa) rats, which are treated from the age of 8-12 weeks, were used as IR model. Rats were housed with a 12-h light/dark cycle and free access to food and water unless otherwise noted. Studies were approved by the Institutional Animal Care and Use Committee. There were a total of 18 animals in the study (8 week-old males, provided by Charles River). Animals were randomized into 3 groups (vehicle group, Compound A group, Compound B group, n=6 per group) based on random glucose level at the beginning of the study: • Group 1: ZF rats (fa/fa) (n=6), compound A (150 mg/kg via gavage) • Group 2: ZF rats (fa/fa) (n=6), compound B (40 mg/kg/day as admixture to the chow) • Group 3: ZF rats (fa/fa) (n=6), vehicle treatment (control chow, vehicle gavage)
(§2) Group 1 and 3 animals were treated with compound A or vehicle (water) for 4 weeks (from age 8-12 weeks) via oral gavage, twice daily. Chow containing compound B was fed to Group 2 ad lib. Group 1 and Group 3 were fed with chow without compound B ad lib.
Rats underwent a 4 hour fast. […] At t=0, the blood glucose concentrations were determined with a glucometer, and a blood sample was obtained for determination of base line insulin and H2O^18 dilution. […]
One hundred micro liter aliquots of plasma samples inside the cape of an inverted vial were placed in a heating blocked filled with glass beads at 70° C. overnight and the water distillate inside the vial was collected. The deuterium and oxygen-18 isotope ratios of the blood of plasma samples were determined using a Thermo Finnigan High Temperature Conversion/Elemental Analyzer coupled with a Thermo Finnigan MAT 253 IRMS via a Conflo-III Interface. […] The deuterium isotope abundance is first calculated in δ 2H values relative to the international VSMOW standard, and then transformed to APE by using a calibration curve of standards with known enrichments. The ^2H2O enrichment was calculated for rats at 30 min after the glucose load. ^2H2O enrichment was converted to mmoles by multiplying enrichment by the TBW pool size and dividing by 20 (MW ^2H2O). […]

[2] = Pharmacological Study Report I: body weight of ZF (fa/fa) rats during 4 weeks of treatment; settings: age 8-12 weeks, Compound A 150 mg/kg gavage twice daily, Compound B 40 mg/kg/day in chow
Protocol: as §1, §2

[3] = Pharmacological Study Report II: body weight and food intake; settings: for Average food consumption, Week 1 / Average food consumption, Week 2 / Average food consumption, Week 3 / Average food consumption, Week 4: fa/fa rats, average +/- SD
Protocol: (§3) Thirty-six obese Zucker fa/fa and six lean Zucker fa/? male rats obtained from Charles River, were housed under normal vivarium conditions on a 12 hour light/dark cycle. The rats were kept two to a cage with food and water available ad lib, except during the weekly, 4 hour fasts. Water continued to be available during these fasts.
(§4) Compound A corresponds to Cariporide. Compound B corresponds to 2-Methyl-4,5-di-(methylsulfonyl)-benzoyl-guanidine hydrochloride hydrate. Compounds A and B were supplied in powder form by Merck Serono. Drugs were incorporated into a pelleted diet (LabDiet, 5001) by Research Diets, Inc (New Brunswick, N.J.) at concentrations of 0.44 g/kg or 0.88 g/kg of diet to yield approximate doses of 40 or 80 mg/kg. The concentration was calculated based on the assumption that a 300 g rat would eat about 30 g/d of chow. The same chow, but without drug, was fed to rats of both the lean and fa/fa control group animals.
(§5) One week prior to the start of the study, all rats were weighed. After a 4 hour fast, a blood sample was obtained for the determination of blood glucose, insulin, and glycosylated hemoglobin levels (HbA1c). Animals were then sorted on the basis of these parameters into the groups listed below. Rats were eight weeks of age at the onset of treatment.
(§6) • 1. ZF rats (fa/fa) (n=6) chow without drug • 2. ZF rats (fa/fa) (n=6) compound A (40 mg/kg/day) • 3. ZF rats (fa/fa) (n=6) compound A (80 mg/kg/day) • 4. ZF rats (fa/fa) (n=6) compound B (40 mg/kg/day) • 5. ZF rats (fa/fa) (n=6) compound B (80 mg/kg/day) • 6. lean Zucker rats (fa/?) (n=6) chow without drug Dosing Regime
(§7) Treatment appropriate chow was continuously available for 4 weeks except during scheduled 4 h fasts conducted once per week.
individual body weights were determined once per week. Average food intake per cage was also determined once per week and the individual rat consumption was calculated by dividing the cage average by 2 (rats housed 2/cage).

obese Zucker fa/fa rats [4] = test: Pharmacological Study Report II: random and fasting (4 h) blood glucose and plasma insulin levels; settings: Mean ± SD; for Change in Insulin (fasting): change over the 4 week treatment period; for Week 4 Insulin (fasting): week 4 of treatment
Protocol: as §3, §4, §5, §6, §7
Both random and fasting (4 h) blood glucose levels were determined using a hand-held glucometer (OneTouch Ultra, Lifescan, Inc. Milapitas, Calif.) on blood obtained from tail capillary samples. Plasma insulin levels were determined by a rat specific ELISA (Ultra Sensitive Rat Insulin ELISA Kit, Crystal Chem, Inc., Chicago, Ill.). The 4 h fast period started at 9 a.m. and ended after a blood draw at 1 p.m.

obese Zucker fa/fa rats [5] = test: Pharmacological Study Report II: HbA1c levels; settings: Mean ± SD; for Base line HbA1c: baseline; for Change in HbA1c: change over the 4 week treatment period; for Week 4 HbA1c: week 4 of treatment
Protocol: as §3, §4, §5, §6, §7
HbA1c level were determined using a DCA 2000 analyzer (Bayer Healthcare LLC, Elkhart Ind.) prior to beginning the study and again at the end of the 4th week treatment period.

[H]/N=C(\N)NC(=O)c1cc(S(C)(=O)=O)c(S(C)(=O)=O)cc1C [Compound B, 2-Methyl-4,5-di-(methylsulfonyl)-benzoyl-guanidine hydrochloride hydrate]
Insulin sensitivity (% 2H2O recovery per insulin AUC), increase compared to pre-treatment values [1]: ~4 fold | Body weight, difference among vehicle- and compound-treated groups [2]: no significant differences | Average weekly food intake vs chow fed fa/fa controls ([3]; Zucker fa/fa rats, 4 weeks, 40 or 80 mg/kg in chow): did not differ significantly | Average food consumption, Week 1 ([3]; 40 mg/kg in chow): 32.1 +/− 3.2 grams | Average food consumption, Week 2 ([3]; 40 mg/kg in chow): 33.8 +/− 2.9 grams | Average food consumption, Week 3 ([3]; 40 mg/kg in chow): 31.7 +/− 2.9 grams | Average food consumption, Week 4 ([3]; 40 mg/kg in chow): 33.6 +/− 4.4 grams | Average food consumption, Week 1 ([3]; 80 mg/kg in chow): 31.8 +/− 1.4 grams | Average food consumption, Week 2 ([3]; 80 mg/kg in chow): 32.9 +/− 1.9 grams | Average food consumption, Week 3 ([3]; 80 mg/kg in chow): 33.0 +/− 0.7 grams | Average food consumption, Week 4 ([3]; 80 mg/kg in chow): 34.0 +/− 2.9 grams | Baseline Insulin (fasting) (obese Zucker fa/fa rats [4]; 40 mg/kg group): 14.7 ± 2.7 ng/mL | Baseline Insulin (fasting) (obese Zucker fa/fa rats [4]; 80 mg/kg group): 16.2 ± 11.2 ng/mL | Change in Insulin (fasting) (obese Zucker fa/fa rats [4]; 40 mg/kg): -0.2 ± 4.4 ng/mL | Change in Insulin (fasting) (obese Zucker fa/fa rats [4]; 80 mg/kg): -3.2 ± 11.2 ng/mL | Week 4 Insulin (fasting) (obese Zucker fa/fa rats [4]; 40 mg/kg in chow): 14.5 ± 5.5 ng/mL | Week 4 Insulin (fasting) (obese Zucker fa/fa rats [4]; 80 mg/kg in chow): 13.1 ± 8.2 ng/mL | Base line HbA1c (obese Zucker fa/fa rats [5]; 40 mg/kg group): 3.8 ± 0.2% | Base line HbA1c (obese Zucker fa/fa rats [5]; 80 mg/kg group): 4.0 ± 0.4% | Change in HbA1c (obese Zucker fa/fa rats [5]; 40 mg/kg): 0.4 ± 0.2% | Change in HbA1c (obese Zucker fa/fa rats [5]; 80 mg/kg): 0.8 ± 0.7% | Week 4 HbA1c (obese Zucker fa/fa rats [5]; 40 mg/kg in chow): 4.3 ± 0.3% | Week 4 HbA1c (obese Zucker fa/fa rats [5]; 80 mg/kg in chow): 4.8 ± 0.4 %

From US10292949B2, “Pharmaceutical composition comprising rimeporide for treating diseases associated with insulin resistance and β-cell dysfunction” (Merck Patent GmbH, priority 2008, dated 2019)
